Experimental data from article PMC12203311, “Design, synthesis, in silico and in vitro evaluation of pyrrole–indole hybrids as dual tubulin and aromatase inhibitors with potent anticancer activities” (RSC Advances, 2025).

How the values were obtained:
PC-3 = assay: NCI60 five-dose screen; assay type: cell-based; details: Homo sapiens, PC-3, prostate cancer; for CC50: read-out: LC50 (the source's name)
SF-295 = assay: NCI60 five-dose screen; assay type: cell-based; details: Homo sapiens, SF-295, CNS cancer; for CC50: read-out: LC50 (the source's name)
LOX IMVI = assay: NCI60 five-dose screen; assay type: cell-based; details: Homo sapiens, melanoma; for CC50: read-out: LC50 (the source's name)
CCRF-CEM = assay: NCI60 five-dose screen; assay type: cell-based; details: Homo sapiens, leukemia; for CC50: read-out: LC50 (the source's name)
[1] = test system: L929 normal mouse fibroblast cell line; assay: Cytotoxicity MTT assay, L929; assay type: cell-based; details: 50 µM single concentration
Experimental: T47D (ATCC HTB-133) was purchased from Biomedia (Thailand) Co., LTD. L929 (ATCC CCL-1) was received as a gift from Prof. Tanapat Palaga, Department of Microbiology, Faculty of Science, Chulalongkorn University, Bangkok, Thailand. The cells were cultured in Dulbecco's Modified Eagle's Medium (DMEM; Gibco) supplemented with 10% fetal bovine serum (FBS; HyClone), 100 U mL^−1 penicillin and 100 µg mL^−1 streptomycin (Gibco) at 37 °C with 5% CO2.
The antiproliferative activity was determined by MTT assay. Briefly, the cells were plated into a 96-well microplate at the density of 10 000 cells per well. The cells were allowed to grow overnight before treated with the solutions of compounds in culture medium at the designated concentrations for 48 hours. The medium was then replaced with MTT solution (0.5 mg mL^−1 MTT in culture medium) and incubated for 3 hours. A 100 µL of DMSO was used to dissolve the produced formazan. Absorbance at 570 nm was then measured using a microplate reader (Varioskan™ LUX multimode microplate reader, Thermo Scientific™). Percent viability was calculated relative to the vehicle control (DMSO).

UO-31 = assay: NCI60 five-dose screen; assay type: cell-based; details: Homo sapiens, UO-31, renal cancer
NCI-H460 = assay: NCI60 five-dose screen; assay type: cell-based; details: Homo sapiens, NCI-H460, NSC lung cancer; for CC50: read-out: LC50 (the source's name)
BT-549 = assay: NCI60 five-dose screen; assay type: cell-based; details: Homo sapiens, BT-549, breast cancer; for CC50: read-out: LC50 (the source's name)
SK-OV-3 = assay: NCI60 five-dose screen; assay type: cell-based; details: Homo sapiens, SK-OV-3, ovarian cancer; for CC50: read-out: LC50 (the source's name)
SK-MEL-28 = assay: NCI60 five-dose screen; assay type: cell-based; details: Homo sapiens, SK-MEL-28, melanoma; for CC50: read-out: LC50 (the source's name)
HL-60 (TB) = assay: NCI60 five-dose screen; assay type: cell-based; details: Homo sapiens, leukemia; for CC50: read-out: LC50 (the source's name)
COLO 205 = assay: NCI60 five-dose screen; assay type: cell-based, human; details: Homo sapiens; for CC50: COLO 205, COLO 205, colon cancer, read-out: LC50 (the source's name); for GI50: COLO 205, colon cancer
HCT-15 = assay: NCI60 five-dose screen; assay type: cell-based; details: Homo sapiens, HCT-15, colon cancer; for CC50: read-out: LC50 (the source's name)
MDA-MB-435 = assay: NCI60 five-dose screen; assay type: cell-based, human; details: Homo sapiens; for CC50: MDA-MB-435, MDA-MB-435, melanoma, read-out: LC50 (the source's name); for GI50: MDA-MB-435, melanoma
HOP-62 = assay: NCI60 five-dose screen; assay type: cell-based; details: Homo sapiens, HOP-62, NSC lung cancer; for CC50: read-out: LC50 (the source's name)
SF-268 = assay: NCI60 five-dose screen; assay type: cell-based; details: Homo sapiens, SF-268, CNS cancer; for CC50: read-out: LC50 (the source's name)
A549/ATCC = assay: NCI60 five-dose screen; assay type: cell-based; details: Homo sapiens, NSC lung cancer; for CC50: read-out: LC50 (the source's name)
CAKI-1 = assay: NCI60 five-dose screen; assay type: cell-based; details: Homo sapiens, CAKI-1, renal cancer; for CC50: read-out: LC50 (the source's name)
MALME-3M = assay: NCI60 five-dose screen; assay type: cell-based; details: Homo sapiens, melanoma; for CC50: read-out: LC50 (the source's name)
UACC-257 = assay: NCI60 five-dose screen; assay type: cell-based; details: Homo sapiens, UACC-257, melanoma; for CC50: read-out: LC50 (the source's name)
OVCAR-8 = assay: NCI60 five-dose screen; assay type: cell-based; details: Homo sapiens, OVCAR-8, ovarian cancer; for CC50: read-out: LC50 (the source's name)
RPMI-8226 = assay: NCI60 five-dose screen; assay type: cell-based; details: Homo sapiens, RPMI-8226, leukemia; for CC50: read-out: LC50 (the source's name)
NCI-H23 = assay: NCI60 five-dose screen; assay type: cell-based; details: Homo sapiens, NCI-H23, NSC lung cancer; for CC50: read-out: LC50 (the source's name)
786-0 = assay: NCI60 five-dose screen; assay type: cell-based; details: Homo sapiens, 786-0, renal cancer; for CC50: read-out: LC50 (the source's name)
RXF 393 = assay: NCI60 five-dose screen; assay type: cell-based; details: Homo sapiens, RXF 393, renal cancer; for CC50: read-out: LC50 (the source's name)
NCI-H226 = assay: NCI60 five-dose screen; assay type: cell-based; details: Homo sapiens, NCI-H226, NSC lung cancer; for CC50: read-out: LC50 (the source's name)
A498 = assay: NCI60 five-dose screen; assay type: cell-based; details: Homo sapiens, A498, renal cancer; for CC50: read-out: LC50 (the source's name)
SN12C = assay: NCI60 five-dose screen; assay type: cell-based; details: Homo sapiens, renal cancer; for CC50: read-out: LC50 (the source's name)
MDA-MB-468 = assay: NCI60 five-dose screen; assay type: cell-based; details: Homo sapiens, MDA-MB-468, breast cancer; for CC50: read-out: LC50 (the source's name)
HOP-92 = assay: NCI60 five-dose screen; assay type: cell-based; details: Homo sapiens, HOP-92, NSC lung cancer; for CC50: read-out: LC50 (the source's name)

CCOC(=O)c1ccc(/C=N/NC(=O)c2[nH]c3ccc(Br)cc3c2-c2ccccc2)[nH]1 [Derivative 3i, Ethyl (E)-5-((2-(5-bromo-3-phenyl-1H-indole-2-carbonyl)hydrazono)methyl)-1H-pyrrole-2-carboxylate] gave a GI50 (PC-3) of 2.28 µM, a CC50 (PC-3) greater than 100 µM and a GI50 (SF-295) of 1.8 µM. It also gave a CC50 (SF-295) of 38.1 µM, a GI50 (LOX IMVI) of 2.26 µM and a CC50 (LOX IMVI) of 35.2 µM. For the same compound, the GI50 (CCRF-CEM) was 3.04 µM, the CC50 (CCRF-CEM) was greater than 100 µM and the L929 cell survival [1] was greater than 80%. For the same compound, the “L929 toxicity at single concentration” value [1] was “— ^c (No toxicity observed at 50 µM single concentration (>80% cell survival).)”, the GI50 (UO-31) was 1.48 µM and the CC50 (UO-31; read-out: LC50 (the source's name)) was greater than 100 µM. It also gave a GI50 (NCI-H460) of 2.8 µM, a CC50 (NCI-H460) of 41.4 µM and a GI50 (BT-549) of 3.47 µM. For the same compound, the CC50 (BT-549) was greater than 100 µM, the GI50 (SK-OV-3) was 4.01 µM and the CC50 (SK-OV-3) was greater than 100 µM. For the same compound, the GI50 (SK-MEL-28) was 2.65 µM, the CC50 (SK-MEL-28) was 94.5 µM and the GI50 (HL-60 (TB)) was 1.84 µM. It also gave a CC50 (HL-60 (TB)) greater than 100 µM, a CC50 (COLO 205) of 36.9 µM and a GI50 (COLO 205) of 3.15 µM. The GI50 (HCT-15) was 2.48 µM, the CC50 (HCT-15) was 40.5 µM and the CC50 (MDA-MB-435) was 27.6 µM. It also gave a GI50 (MDA-MB-435) of 0.464 µM, a GI50 (HOP-62) of 3.65 µM and a CC50 (HOP-62) greater than 100 µM. It also gave a GI50 (SF-268) of 2.68 µM, a CC50 (SF-268) greater than 100 µM and a GI50 (A549/ATCC) of 3.25 µM. The CC50 (A549/ATCC) was 79.4 µM, the GI50 (CAKI-1) was 0.961 µM and the CC50 (CAKI-1) was 74.2 µM. For the same compound, the GI50 (MALME-3M) was 3.83 µM, the CC50 (MALME-3M) was 54.8 µM and the GI50 (UACC-257) was 2.97 µM. For the same compound, the CC50 (UACC-257) was 87.4 µM, the GI50 (OVCAR-8) was 2.49 µM and the CC50 (OVCAR-8) was 47.6 µM. It also gave a GI50 (RPMI-8226) of 2.28 µM, a CC50 (RPMI-8226) greater than 100 µM and a GI50 (NCI-H23) of 2.59 µM. For the same compound, the CC50 (NCI-H23) was 43.2 µM, the GI50 (786-0) was 4.48 µM and the CC50 (786-0) was greater than 100 µM. The GI50 (RXF 393) was 1.69 µM, the CC50 (RXF 393) was 66.4 µM and the GI50 (NCI-H226) was 3.13 µM. It also gave a CC50 (NCI-H226) of 45.4 µM, a GI50 (A498) of 10.5 µM and a CC50 (A498) of 55.2 µM. For the same compound, the GI50 (SN12C) was 2.86 µM, the CC50 (SN12C) was 36.2 µM and the GI50 (MDA-MB-468) was 1.63 µM. It also gave a CC50 (MDA-MB-468) of 36.6 µM, a GI50 (HOP-92) of 2.33 µM and a CC50 (HOP-92) greater than 100 µM.
With Cc1[nH]c(/C=N/NC(=O)c2[nH]c3ccc(Br)cc3c2-c2ccccc2)c(C)c1[N+](=O)[O-] [Derivative 3r, (E)-5-Bromo-N′-((3,5-dimethyl-4-nitro-1H-pyrrol-2-yl)methylene)-3-phenyl-1H-indole-2-carbohydrazide] the GI50 (PC-3) was 2.85 µM, the CC50 (PC-3) was 45.5 µM and the GI50 (SF-295) was 2.32 µM. It also gave a CC50 (SF-295) of 21.2 µM, a GI50 (LOX IMVI) of 1.63 µM and a CC50 (LOX IMVI) of 5.73 µM. For the same compound, the GI50 (CCRF-CEM) was 1.89 µM, the CC50 (CCRF-CEM) was greater than 100 µM and the L929 cell survival [1] was greater than 80%. The “L929 toxicity at single concentration” value [1] was “— ^c (No toxicity observed at 50 µM single concentration (>80% cell survival).)”, the GI50 (NCI-H460) was 1.87 µM and the CC50 (NCI-H460) was 8.05 µM. It also gave a GI50 (BT-549) of 2.74 µM, a CC50 (BT-549) of 30.6 µM and a GI50 (SK-OV-3) of 3.23 µM. The CC50 (SK-OV-3) was 39.2 µM, the GI50 (SK-MEL-28) was 3.56 µM and the CC50 (SK-MEL-28) was 38.7 µM. For the same compound, the GI50 (HL-60 (TB)) was 2.31 µM, the CC50 (HL-60 (TB)) was greater than 100 µM and the CC50 (COLO 205) was 7.51 µM. The GI50 (COLO 205) was 1.9 µM, the GI50 (HCT-15) was 2.41 µM and the CC50 (HCT-15) was 26.4 µM. For the same compound, the CC50 (MDA-MB-435) was 17.9 µM, the GI50 (MDA-MB-435) was 1.77 µM and the GI50 (HOP-62) was 2.09 µM. It also gave a CC50 (HOP-62) of 11.7 µM, a GI50 (SF-268) of 2.37 µM and a CC50 (SF-268) of 33.1 µM. The GI50 (A549/ATCC) was 3.19 µM, the CC50 (A549/ATCC) was 35.6 µM and the GI50 (CAKI-1) was 2.29 µM. It also gave a CC50 (CAKI-1) of 33.1 µM, a GI50 (MALME-3M) of 1.99 µM and a CC50 (MALME-3M) of 28.5 µM. For the same compound, the GI50 (UACC-257) was 3.13 µM, the CC50 (UACC-257) was 48.1 µM and the GI50 (OVCAR-8) was 3.08 µM. For the same compound, the CC50 (OVCAR-8) was 36.5 µM, the GI50 (RPMI-8226) was 2.7 µM and the CC50 (RPMI-8226) was greater than 100 µM. For the same compound, the GI50 (NCI-H23) was 2.46 µM, the CC50 (NCI-H23) was 26.3 µM and the GI50 (786-0) was 2.35 µM. For the same compound, the CC50 (786-0) was 17 µM, the GI50 (RXF 393) was 1.7 µM and the CC50 (RXF 393) was 15.9 µM. For the same compound, the GI50 (NCI-H226) was 3.78 µM, the CC50 (NCI-H226) was 40.6 µM and the GI50 (A498) was 2.35 µM. For the same compound, the CC50 (A498) was 27.6 µM, the GI50 (SN12C) was 1.74 µM and the CC50 (SN12C) was 6.73 µM. It also gave a GI50 (MDA-MB-468) of 1.94 µM, a CC50 (MDA-MB-468) of 26.1 µM and a GI50 (HOP-92) of 2.51 µM. It also gave a CC50 (HOP-92) of 45.8 µM.
